{
  "source": "ChEMBL document CHEMBL1201862",
  "about": "“PubChem BioAssay data set” (2004)",
  "experiment_in_all_cases": "NCI-60 cell line screen, 48 h",
  "key": {"LOX IMVI": {"tested_on": "LOX IMVI"}, "OVCAR-4": {"tested_on": "OVCAR-4"}, "RXF 393": {"tested_on": "RXF 393"}, "MDA-MB-435": {"tested_on": "MDA-MB-435"}, "K562": {"tested_on": "K562"}, "EKVX": {"tested_on": "EKVX"}, "SF-295": {"tested_on": "SF-295"}, "RPMI-8226": {"tested_on": "RPMI-8226"}, "HCT-15": {"tested_on": "HCT-15"}, "SF-268": {"tested_on": "SF-268"}, "HCC 2998": {"tested_on": "HCC 2998"}, "A549": {"tested_on": "A549"}, "OVCAR-8": {"tested_on": "OVCAR-8"}, "ACHN": {"tested_on": "ACHN"}, "SK-OV-3": {"tested_on": "SK-OV-3"}, "UACC-257": {"tested_on": "UACC-257"}, "DU-145": {"tested_on": "DU-145"}, "HOP-62": {"tested_on": "HOP-62"}, "IGROV-1": {"tested_on": "IGROV-1"}, "TK-10": {"tested_on": "TK-10"}, "BT-549": {"tested_on": "BT-549"}, "MDA-MB-231": {"tested_on": "MDA-MB-231"}, "SNB-75": {"tested_on": "SNB-75"}, "HCT-116": {"tested_on": "HCT-116"}, "M14": {"tested_on": "M14"}, "Hs-578T": {"tested_on": "Hs-578T"}, "U-251": {"tested_on": "U-251"}, "SNB-19": {"tested_on": "SNB-19"}, "HT-29": {"tested_on": "HT-29"}, "786-0": {"tested_on": "786-0"}, "UO-31": {"tested_on": "UO-31"}, "MOLT-4": {"tested_on": "MOLT-4"}, "SK-MEL-2": {"tested_on": "SK-MEL-2"}, "MDA-N": {"tested_on": "MDA-N"}, "CCRF-CEM": {"tested_on": "CCRF-CEM"}, "PC-3": {"tested_on": "PC-3"}, "Malme-3M": {"tested_on": "Malme-3M"}, "NCI-H23": {"tested_on": "NCI-H23"}, "NCI/ADR-RES": {"tested_on": "NCI/ADR-RES"}, "NCI-H460": {"tested_on": "NCI-H460"}, "UACC-62": {"tested_on": "UACC-62"}, "OVCAR-5": {"tested_on": "OVCAR-5"}, "SK-MEL-28": {"tested_on": "SK-MEL-28"}, "MCF7": {"tested_on": "MCF7"}, "CAKI-1": {"tested_on": "CAKI-1"}, "HOP-92": {"tested_on": "HOP-92"}, "OVCAR-3": {"tested_on": "OVCAR-3"}, "SK-MEL-5": {"tested_on": "SK-MEL-5"}, "COLO 205": {"tested_on": "COLO 205"}, "T47D": {"tested_on": "T47D"}, "A498": {"tested_on": "A498"}, "KM12": {"tested_on": "KM12"}, "NCI-H522": {"tested_on": "NCI-H522"}, "SN12C": {"tested_on": "SN12C"}, "HL-60": {"tested_on": "HL-60"}, "SW-620": {"tested_on": "SW-620"}, "NCI-H226": {"tested_on": "NCI-H226"}},
  "note": "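Values below derive from 48-hour exposures of cells grown in 96-well plates, with endpoints linearly interpolated between the two concentrations bracketing the appropriate inhibition level. GI50 marks 50% less growth.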 Calls of active or inactive are those of the source. No stated cut-off is given here; in the data, active = GI50 up to about 1.1 µM and inactive = higher.",
  "data": [
    {"smiles": "COc1ccc(OC)c2sc(N3C(=O)/C(=C/c4cccc(Oc5ccccc5)c4)N=C3c3ccccc3)nc12", "values": [
      {"measurement": "GI50", "setting": "LOX IMVI", "result": "65.3 µM (inactive)"},
      {"measurement": "GI50", "setting": "OVCAR-4", "result": "> 100 µM (inactive)"},
      {"measurement": "GI50", "setting": "RXF 393", "result": "> 100 µM (inactive)"},
      {"measurement": "GI50", "setting": "MDA-MB-435", "result": "29.3 µM (inactive)"},
      {"measurement": "GI50", "setting": "K562", "result": "32.1 µM (inactive)"},
      {"measurement": "GI50", "setting": "EKVX", "result": "> 100 µM (inactive)"},
      {"measurement": "GI50", "setting": "SF-295", "result": "> 100 µM (inactive)"},
      {"measurement": "GI50", "setting": "RPMI-8226", "result": "38.8 µM (inactive)"},
      {"measurement": "GI50", "setting": "HCT-15", "result": 87.9, "unit": "µM"},
      {"measurement": "GI50", "setting": "SF-268", "result": "> 100 µM (inactive)"},
      {"measurement": "GI50", "setting": "HCC 2998", "result": "> 100 µM (inactive)"},
      {"measurement": "GI50", "setting": "A549", "result": "> 100 µM (inactive)"},
      {"measurement": "GI50", "setting": "OVCAR-8", "result": "76 µM (inactive)"},
      {"measurement": "GI50", "setting": "ACHN", "result": "> 100 µM (inactive)"},
      {"measurement": "GI50", "setting": "SK-OV-3", "result": "> 100 µM (inactive)"},
      {"measurement": "GI50", "setting": "UACC-257", "result": "71.3 µM (inactive)"},
      {"measurement": "GI50", "setting": "DU-145", "result": "> 100 µM (inactive)"},
      {"measurement": "GI50", "setting": "HOP-62", "result": "> 100 µM (inactive)"},
      {"measurement": "GI50", "setting": "IGROV-1", "result": "> 100 µM (inactive)"},
      {"measurement": "GI50", "setting": "TK-10", "result": "> 100 µM (inactive)"},
      {"measurement": "GI50", "setting": "BT-549", "result": "> 100 µM (inactive)"},
      {"measurement": "GI50", "setting": "MDA-MB-231", "result": "> 100 µM (inactive)"},
      {"measurement": "GI50", "setting": "SNB-75", "result": "> 100 µM (inactive)"},
      {"measurement": "GI50", "setting": "HCT-116", "result": "85.1 µM (inactive)"},
      {"measurement": "GI50", "setting": "M14", "result": "> 100 µM (inactive)"},
      {"measurement": "GI50", "setting": "Hs-578T", "result": "> 100 µM (inactive)"},
      {"measurement": "GI50", "setting": "U-251", "result": "92 µM (inactive)"},
      {"measurement": "GI50", "setting": "SNB-19", "result": "> 100 µM (inactive)"},
      {"measurement": "GI50", "setting": "HT-29", "result": "> 100 µM (inactive)"},
      {"measurement": "GI50", "setting": "786-0", "result": "> 100 µM (inactive)"},
      {"measurement": "GI50", "setting": "UO-31", "result": "> 100 µM (inactive)"},
      {"measurement": "GI50", "setting": "MOLT-4", "result": "31.9 µM (inactive)"},
      {"measurement": "GI50", "setting": "SK-MEL-2", "result": "> 100 µM (inactive)"},
      {"measurement": "GI50", "setting": "MDA-N", "result": "38 µM (inactive)"},
      {"measurement": "GI50", "setting": "CCRF-CEM", "result": "29.9 µM (inactive)"},
      {"measurement": "GI50", "setting": "PC-3", "result": "> 100 µM (inactive)"},
      {"measurement": "GI50", "setting": "Malme-3M", "result": "> 100 µM (inactive)"},
      {"measurement": "GI50", "setting": "NCI-H23", "result": "> 100 µM (inactive)"},
      {"measurement": "GI50", "setting": "NCI/ADR-RES", "result": "> 100 µM (inactive)"},
      {"measurement": "GI50", "setting": "NCI-H460", "result": "> 100 µM (inactive)"},
      {"measurement": "GI50", "setting": "UACC-62", "result": "> 100 µM (inactive)"},
      {"measurement": "GI50", "setting": "OVCAR-5", "result": "> 100 µM (inactive)"},
      {"measurement": "GI50", "setting": "SK-MEL-28", "result": "> 100 µM (inactive)"},
      {"measurement": "GI50", "setting": "MCF7", "result": "35.2 µM (inactive)"},
      {"measurement": "GI50", "setting": "CAKI-1", "result": "> 100 µM (inactive)"},
      {"measurement": "GI50", "setting": "HOP-92", "result": "> 100 µM (inactive)"},
      {"measurement": "GI50", "setting": "OVCAR-3", "result": "> 100 µM (inactive)"},
      {"measurement": "GI50", "setting": "SK-MEL-5", "result": "47.5 µM (inactive)"},
      {"measurement": "GI50", "setting": "COLO 205", "result": "51.8 µM (inactive)"},
      {"measurement": "GI50", "setting": "T47D", "result": "47 µM (inactive)"},
      {"measurement": "GI50", "setting": "A498", "result": "> 100 µM (inactive)"},
      {"measurement": "GI50", "setting": "KM12", "result": "70 µM (inactive)"},
      {"measurement": "GI50", "setting": "NCI-H522", "result": "53.7 µM (inactive)"},
      {"measurement": "GI50", "setting": "SN12C", "result": "> 100 µM (inactive)"},
      {"measurement": "GI50", "setting": "HL-60", "result": "38 µM (inactive)"},
      {"measurement": "GI50", "setting": "SW-620", "result": "51.1 µM (inactive)"}
    ]},
    {"smiles": "CNc1nc(N(C)C)nc(N(C)C)n1", "values": [
      {"measurement": "GI50", "setting": "MDA-MB-435", "result": "1110 µM (inactive)"},
      {"measurement": "GI50", "setting": "DU-145", "result": "2790 µM (inactive)"},
      {"measurement": "GI50", "setting": "BT-549", "result": "1320 µM (inactive)"},
      {"measurement": "GI50", "setting": "MDA-MB-231", "result": "955 µM (inactive)"},
      {"measurement": "GI50", "setting": "NCI-H226", "result": "1.12 mM (inactive)"},
      {"measurement": "GI50", "setting": "M14", "result": "1210 µM (inactive)"},
      {"measurement": "GI50", "setting": "Hs-578T", "result": "2100 µM (inactive)"},
      {"measurement": "GI50", "setting": "MDA-N", "result": "855 µM (inactive)"},
      {"measurement": "GI50", "setting": "PC-3", "result": "1580 µM (inactive)"},
      {"measurement": "GI50", "setting": "NCI/ADR-RES", "result": "1140 µM (inactive)"},
      {"measurement": "GI50", "setting": "MCF7", "result": "771 µM (inactive)"},
      {"measurement": "GI50", "setting": "T47D", "result": "578 µM (inactive)"}
    ]}
  ]
}
